What all share (assay): Di-E-GSSG fluorescent reductase assay
Holding throughout (format): biochemical

Test [1] deals with T1, ERp72 (Homo sapiens, UniProt P13667).
T1 sequence (P13667 21-645): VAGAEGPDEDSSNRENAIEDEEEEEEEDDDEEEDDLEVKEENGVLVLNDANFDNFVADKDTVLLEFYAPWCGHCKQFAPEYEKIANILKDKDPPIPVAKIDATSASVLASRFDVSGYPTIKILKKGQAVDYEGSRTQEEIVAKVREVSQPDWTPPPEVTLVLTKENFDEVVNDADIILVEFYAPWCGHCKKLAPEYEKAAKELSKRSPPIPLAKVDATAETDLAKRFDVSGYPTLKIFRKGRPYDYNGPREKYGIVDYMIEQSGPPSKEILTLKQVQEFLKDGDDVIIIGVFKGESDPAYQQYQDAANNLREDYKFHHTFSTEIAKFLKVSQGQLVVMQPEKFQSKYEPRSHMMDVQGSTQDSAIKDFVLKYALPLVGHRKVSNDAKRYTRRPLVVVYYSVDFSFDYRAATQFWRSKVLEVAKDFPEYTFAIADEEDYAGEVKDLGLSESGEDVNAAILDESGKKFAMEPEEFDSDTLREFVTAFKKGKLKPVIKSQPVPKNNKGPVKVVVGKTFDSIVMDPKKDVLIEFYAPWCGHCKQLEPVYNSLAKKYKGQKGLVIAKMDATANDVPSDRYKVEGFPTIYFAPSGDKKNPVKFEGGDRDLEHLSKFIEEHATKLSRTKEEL

Test [2] addresses T2, ERp5 (Homo sapiens, UniProt Q15084).
T2 sequence (Q15084 20-440): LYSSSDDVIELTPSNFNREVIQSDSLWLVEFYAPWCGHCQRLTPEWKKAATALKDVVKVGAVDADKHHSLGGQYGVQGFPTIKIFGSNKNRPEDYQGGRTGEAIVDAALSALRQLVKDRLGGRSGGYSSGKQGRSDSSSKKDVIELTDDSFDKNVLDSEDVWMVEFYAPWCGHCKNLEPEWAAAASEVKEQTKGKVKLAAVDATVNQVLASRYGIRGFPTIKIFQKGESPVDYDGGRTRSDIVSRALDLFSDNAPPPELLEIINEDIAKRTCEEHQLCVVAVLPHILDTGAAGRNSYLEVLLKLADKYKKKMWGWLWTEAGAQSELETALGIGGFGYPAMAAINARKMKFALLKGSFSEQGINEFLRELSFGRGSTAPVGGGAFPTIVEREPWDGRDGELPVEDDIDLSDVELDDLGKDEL

In test [3] the target is T3, ERp57 (Homo sapiens, UniProt P30101).
T3 sequence (P30101 25-505): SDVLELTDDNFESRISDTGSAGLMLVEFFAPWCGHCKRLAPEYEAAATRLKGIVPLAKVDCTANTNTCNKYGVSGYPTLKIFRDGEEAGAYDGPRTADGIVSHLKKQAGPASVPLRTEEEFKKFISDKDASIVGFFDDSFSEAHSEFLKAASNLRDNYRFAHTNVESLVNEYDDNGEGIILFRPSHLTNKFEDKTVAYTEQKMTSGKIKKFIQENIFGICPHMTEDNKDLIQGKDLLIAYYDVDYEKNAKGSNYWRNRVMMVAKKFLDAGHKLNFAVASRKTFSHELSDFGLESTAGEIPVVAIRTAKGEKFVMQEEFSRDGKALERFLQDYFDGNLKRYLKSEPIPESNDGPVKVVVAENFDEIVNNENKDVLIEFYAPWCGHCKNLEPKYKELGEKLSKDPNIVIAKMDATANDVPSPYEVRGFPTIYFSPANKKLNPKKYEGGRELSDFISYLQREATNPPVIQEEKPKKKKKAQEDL

Test [4] addresses protein disulfide isomerase (PDI) (Homo sapiens, UniProt P07237).

Structures are written as SMILES.

As a reminder, the IC50 is the concentration that inhibits the measured activity by half. A low value points to inhibition by little substance.

Chain of protein disulfide isomerase (PDI) (P07237 18-508): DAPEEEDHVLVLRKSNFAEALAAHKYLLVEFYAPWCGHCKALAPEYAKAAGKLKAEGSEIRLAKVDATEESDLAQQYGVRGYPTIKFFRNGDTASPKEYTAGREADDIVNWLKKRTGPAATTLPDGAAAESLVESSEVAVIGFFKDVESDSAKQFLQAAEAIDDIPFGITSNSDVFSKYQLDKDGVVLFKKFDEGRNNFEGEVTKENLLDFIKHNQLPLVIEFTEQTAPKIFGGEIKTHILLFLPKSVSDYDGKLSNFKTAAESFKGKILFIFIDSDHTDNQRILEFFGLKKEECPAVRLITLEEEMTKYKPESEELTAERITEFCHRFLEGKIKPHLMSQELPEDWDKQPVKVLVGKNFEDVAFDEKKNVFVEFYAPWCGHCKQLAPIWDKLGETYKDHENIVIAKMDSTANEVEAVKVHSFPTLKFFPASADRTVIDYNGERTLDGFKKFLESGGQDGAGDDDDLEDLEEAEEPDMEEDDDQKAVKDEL

With `COc1cc(/C=C/[N+](=O)[O-])ccc1OC(=O)c1cccc(Cl)c1Cl` [HPW-RX40, 2-Methoxy-4-[(E)-2-nitrovinyl]phenyl 2,3-dichlorobenzoate], the concentration for half-maximal inhibition (IC50) in test [1] stood at 18.8 µM; in test [2] it was 2.6 µM; in test [3], 4.3 µM; in test [4], 1.45 µM.
